The nature of data set [1]: RP, Waters ACQUITY UPLC BEH C18, 100 × 1 mm, 1.7 µm, 50 °C, 0.3 mL/min, estimated dead time 0.17 min; A: water + 10 mM ammonium bicarbonate; B: 10% water + 90% methanol + 10 mM ammonium bicarbonate; gradient (min/%B) 0/0 15/100 21/100 22/0 30/0. The following applies: stereoisomer not certain.
The nature of data set [2]: RP, Waters ACQUITY UPLC BEH C18, 100 × 1 mm, 1.7 µm, 50 °C, 0.3 mL/min, estimated dead time 0.17 min; A: water + 0.1% formic acid + 20 mM ammonium formate; B: methanol + 0.1% formic acid + 20 mM ammonium formate; gradient (min/%B) 0/0 15/100 21/100 22/0 30/0. To be noted: stereoisomer not certain.

Consider `COP(=S)(S)OC` [Dimethyldithiophosphate], for which the LC retention time is 2.81 min in data set [1] and 2.01 min in data set [2].
Take `CCCCCCCCCOC(=O)c1ccccc1C(=O)OCCCCCCCCC` [Dinonylphthalate]: the LC retention time was 20.5 min in data set [1] and 19.7 min in data set [2].
As for `CC(C)(C)c1cc([N+](=O)[O-])cc([N+](=O)[O-])c1O` [Dinoterb], the LC retention time in data set [1] is 12.6 min; in data set [2] it was 15.7 min.
Taken in the same sequence, the figures for `CCCCC(CC)COC(=O)CC(C(=O)OCC(CC)CCCC)S(=O)(=O)O` (stereo not given) [Dioctylsulfosuccinate] were 17.3 min and 17 min.
For `CC1CCC2(OC1)OC1CC3C4CC=C5CC(O)CCC5(C)C4CCC3(C)C1C2C` (stereo not given) [Diosgenin], the LC retention time in data set [1] was 19.6 min; in data set [2], 19 min.
Consider `CN(C)CCOC(c1ccccc1)c1ccccc1` [Diphenhydramine], for which the LC retention time in data set [1] is 15.7 min; in data set [2], 11.7 min.
For the compound `O=P(O)(Oc1ccccc1)Oc1ccccc1` [Diphenylphosphate], the LC retention time was 10.9 min in data set [1] and 11 min in data set [2].
The matching figures for `O=C(Oc1ccccc1)c1ccccc1C(=O)Oc1ccccc1` [Diphenylphthalate]: 16 min and 15.7 min.
Taken in the same sequence, the figures for `O=c1[nH]c2ccccc2n1CCCN1CCC(n2c(=O)[nH]c3cc(Cl)ccc32)CC1` [Domperidone] were 14.8 min and 10.7 min.
For the compound `NCCc1ccc(O)c(O)c1` [Dopamine], the LC retention time in data set [1] is 6.92 min; in data set [2] it was 6.88 min.
The matching figures for `COc1cc2nc(N3CCN(C(=O)C4COc5ccccc5O4)CC3)nc(N)c2cc1OC` (stereo not given) [Doxazosin]: 14 min and 11.6 min.
For `CN(C)CCOC(C)(c1ccccc1)c1ccccn1` (stereo not given) [Doxylamine], the LC retention time in data set [1] is 14 min; in data set [2] it was 8.49 min.
`OCC(O)CN1CCN(c2ccccc2)CC1` (stereo not given) [Dropropizine]: the LC retention time in data set [1] was 10.7 min; in data set [2], 6.44 min.
As for `CC12CCC(=O)C=C1C1CC1C1C2CCC2(C)C1C1CC1C21CCC(=O)O1` (stereo not given) [Drospirenone], the LC retention time in data set [1] was 14.5 min; in data set [2], 14.2 min.
Turning to `CNCCC(Oc1cccc2ccccc12)c1cccs1` (stereo not given) [Duloxetine], the LC retention time is 15.4 min in data set [1] and 13.2 min in data set [2].
With `CC(C)(C)c1ccc(C(=O)CCCN2CCC(OC(c3ccccc3)c3ccccc3)CC2)cc1` [Ebastin], the LC retention time was 18.8 min in data set [1] and 15.9 min in data set [2].
For the compound `CC=C(C)C(=O)OC1CCN2CC=C(COC(=O)C(O)(C(C)O)C(C)(C)O)C12` (stereo not given) [Echimidine], the results for the LC retention time in data set [1] and in data set [2] were 13.2 min and 9.4 min, respectively.
Regarding `O=C1Nc2ccc(Cl)cc2C(C#CC2CC2)(C(F)(F)F)O1` (stereo not given) [Efavirenz], the LC retention time in data set [1] was 15.8 min; in data set [2], 15.5 min.
Taken in the same sequence, the figures for `CCC(C)C1OC2(C=CC1C)CC1CC(CC=C(C)C(OC3CC(OC)C(OC4CC(OC)C(NC)C(C)O4)C(C)O3)C(C)C=CC=C3COC4C(O)C(C)=CC(C(=O)O1)C34O)O2` (stereo not given) [Emamectin B1a] were 18.6 min and 17.1 min.
With `Nc1nc(=O)n(C2CSC(CO)O2)cc1F` (stereo not given) [Emtricitabine], the LC retention time was 5.99 min in data set [1] and 5.75 min in data set [2].
In the case of `CCOC(=O)C(CCc1ccccc1)NC(C)C(=O)N1CCCC1C(=O)O` (stereo not given) [Enalapril], the LC retention time in data set [1] is 12.2 min; in data set [2], 11.7 min.
As to `CCN1CCN(c2cc3c(cc2F)c(=O)c(C(=O)O)cn3C2CC2)CC1` [Enrofloxacin], the values for the LC retention time in data set [1] and in data set [2] were 11.4 min and 8.5 min, respectively.
The matching figures for `CCC(C)C1OC2(C=CC1C)CC1CC(CC=C(C)C(OC3CC(OC)C(OC4CC(OC)C(NC(C)=O)C(C)O4)C(C)O3)C(C)C=CC=C3COC4C(O)C(C)=CC(C(=O)O1)C34O)O2` (stereo not given) [Eprinomectin B1a]: 18.3 min and 17.9 min.
Taken in the same sequence, the figures for `CC=C1CC2(CO)OC2(C)C(=O)OCC2=CC[N+]3([O-])CCC(OC1=O)C23` (stereo not given) [Erucifoline N-oxide] were 6.82 min and 6.51 min.
On to `CC=C1CC2(CO)OC2(C)C(=O)OCC2=CCN3CCC(OC1=O)C23` (stereo not given) [Erucifoline], for which the values for the LC retention time in data set [1] and in data set [2] were 10.2 min and 6 min, respectively.
As for `CCC1OC(=O)C(C)C(OC2CC(C)(OC)C(O)C(C)O2)C(C)C(OC2OC(C)CC(N(C)C)C2O)C(C)(O)CC(C)C(=O)C(C)C(O)C1(C)O` (stereo not given) [Erythromycin], the LC retention time in data set [1] was 15.9 min; in data set [2], 13.2 min.
With `CCC1COC(Cn2cncn2)(c2ccc(Cl)cc2Cl)O1` (stereo not given) [Etaconazole], the LC retention time in data set [1] was 15.4 min; in data set [2], 15 min.
Taken in the same sequence, the figures for `CCS(=O)(=O)c1nnc(N(C)C(=O)NC)s1` [Ethidimuron] were 8.81 min and 8.76 min.
In the case of `CCOC(=O)c1ccc(N(C)C)cc1` [Ethyl-4-dimethylaminobenzoate], the LC retention time in data set [1] is 14.6 min; in data set [2] it was 14.3 min.
Regarding `CCOc1ccc(C(C)(C)COCc2cccc(Oc3ccccc3)c2)cc1` [Etofenprox], the LC retention time was 14.1 min in data set [1] and 13.8 min in data set [2].
The matching figures for `CCOc1cc(C(C)(C)C)ccc1C1COC(c2c(F)cccc2F)=N1` (stereo not given) [Etoxazole]: 17.8 min and 17.4 min.
On to `COC(C)C(O)(C(=O)OCC1=CC[N+]2([O-])CCC(O)C12)C(C)(C)O` (stereo not given) [Europine N-oxide], for which the values for the LC retention time in data set [1] and in data set [2] were 7.37 min and 6.99 min, respectively.
Regarding `COC(C)C(O)(C(=O)OCC1=CCN2CCC(O)C12)C(C)(C)O` (stereo not given) [Europine], the LC retention time in data set [1] was 9.86 min; in data set [2], 6.72 min.
`C=C1CC2C(CCC3(C)C(=O)CCC23)C2(C)C=CC(=O)C=C12` (stereo not given) [Exemestane]: the LC retention time in data set [1] is 14.3 min; in data set [2], 14 min.
`CCOP(=O)(NC(C)C)Oc1ccc(S(C)(=O)=O)c(C)c1` (stereo not given) [Fenamiphos-sulfone]: the LC retention time is 12.4 min in data set [1] and 12.2 min in data set [2].
Turning to `CC(C)OC(=O)C(C)(C)Oc1ccc(C(=O)c2ccc(Cl)cc2)cc1` [Fenofibrate], the LC retention time in data set [1] was 17.3 min; in data set [2], 17 min.
Regarding `CCOC(=O)NCCOc1ccc(Oc2ccccc2)cc1` [Fenoxycarb], the results for the LC retention time in data set [1] and in data set [2] were 15.6 min and 15.3 min, respectively.
On to `COP(=S)(OC)Oc1ccc(S(C)=O)c(C)c1` (stereo not given) [Fenthion-sulfoxide], for which the LC retention time is 12.3 min in data set [1] and 12.1 min in data set [2].
Taken in the same sequence, the figures for `CC(C)(C)NC(=O)C1CCC2C3CCC4NC(=O)C=CC4(C)C3CCC12C` (stereo not given) [Finasteride] were 14.9 min and 14.6 min.
Consider `COc1ncc(F)c2nc(S(=O)(=O)Nc3c(F)cccc3F)nn12` [Florasulam], for which the LC retention time in data set [1] was 9 min; in data set [2], 10.5 min.

Source of the values: the RepoRT retention time repository (doi:10.1021/acs.analchem.1c00972).
